This note sets out measurements from US20230192686A1, “1H-PYRROLO[2,3-B]PYRIDINES AND PREPARATION AND USES THEREOF” (BioSplice Therapeutics, Inc., priority 2021, published 2023).

The target of the experiment is recombinant DYRK1A kinase (Homo sapiens, UniProt Q13627). As to the kind of experiment: DYRK1A kinase assay (Ser/Thr 18 peptide Z-lyte FRET). It is filed as biochemical. The conditions noted are these: DYRK1A kinase activity; 15 μM ATP, 4 μM Ser/Thr peptide 18, one hour at room temperature. The method, then: Representative compounds were screened using the assay procedure for DYRK1A kinase activity as described below.
Each compound was dissolved in DMSO as a 10 mM stock and used to prepare compound source plates. Serial dilution (1:3, 11-point dose-response curves from 10 μM to 0.00016 μM) and compound transfer was performed using the ECHO 550 (Labcyte, Sunnyvale, Calif.) into 1536-well black-walled round bottom plates (Corning).
The DYRK1A kinase assay was run using the Ser/Thr 18 peptide Z-lyte assay kit according to manufacturer's instructions (Life Technologies—a Division of Thermo-Fisher). This is a non-radioactive assay using fluorescence resonance energy transfer (FRET) between coumarin and fluorescein to detect kinase activity which is represented as a ratio of coumarin emission/fluorescein emission.
Briefly, recombinant DYRK1A kinase, ATP and Ser/Thr peptide 18 were prepared in 1× Kinase buffer to final concentrations of 0.25 μg/mL, 15 μM, and 4 μM respectively. The mixture was allowed to incubate with the representative compounds for one hour at room temperature. All reactions were performed in duplicate. Unphosphorylated (“0% Control”) and phosphorylated (“100% control”) forms of Ser/Thr 18 served as control reactions. Additionally, an 11-point dose-response curve of Staurosporine (1 uM top) was run to serve as a positive compound control.
After incubation, Development Reagent A was diluted in Development Buffer then added to the reaction and allowed to further incubate for one hour at room temperature. The plate was read at Ex 400 Em 455 to detect the coumarin signal and Ex 400 Em 520 to measure the signal (EnVision Multilabel Plate Reader, PerkinElmer).
The Emission ratio (Em) was calculated as a ratio of the coumarin (C) emission signal (at 445 nm)/Fluorescein (F) emission signal (at 520 nm). The percent phosphorylation was then calculated using the following formula: [1−((Em ratio×F100%)−C100%)/((C0%−C100%)+(Em ratio×(F100%−F0%)))]. Dose-response curves were generated, and inhibitory concentration (IC50) values were calculated using non-linear regression curve fit in the Dotmatics' Studies Software (Bishops Stortford, UK).
For `O=C(NC1CCN(CC2CC2)CC1)c1cnn2ccc(-c3c[nH]c4ncccc34)cc12` [Compound 48, N-(1-(cyclopropylmethyl)piperidin-4-yl)-5-(1H-pyrrolo[2,3-b]pyridin-3-yl)pyrazolo[1,5-a]pyridine-3-carboxamide], the EC50 came out at 1 nM.

Regarding `CC(F)(F)CN1CCC(NC(=O)c2cnn3ccc(-c4c[nH]c5ncccc45)cc23)CC1` [Compound 49, N-(1-(2,2-Difluoropropyl)piperidin-4-yl)-5-(1H-pyrrolo[2,3-b]pyridin-3-yl)pyrazolo[1,5-a]pyridine-3-carboxamide], the concentration for a half-maximal effect (EC50) came to 1 nM.

Turning to `COCCN1CCC(NC(=O)c2cnn3ccc(-c4c[nH]c5ncccc45)cc23)CC1` [Compound 50, N-(1-(2-Methoxyethyl)piperidin-4-yl)-5-(1H-pyrrolo[2,3-b]pyridin-3-yl)pyrazolo[1,5-a]pyridine-3-carboxamide], the EC50 was found to be 1 nM.

As to `O=C(NC1CCN(Cc2ccccn2)CC1)c1cnn2ccc(-c3c[nH]c4ncccc34)cc12` [Compound 51, N-(1-(Pyridin-2-ylmethyl)piperidin-4-yl)-5-(1H-pyrrolo[2,3-b]pyridin-3-yl)pyrazolo[1,5-a]pyridine-3-carboxamide], the EC50 amounted to 1 nM.

Consider `O=C(Nc1cccnc1)c1cnn2ccc(-c3c[nH]c4ncccc34)cc12` [Compound 52, N-(Pyridin-3-yl)-5-(1H-pyrrolo[2,3-b]pyridin-3-yl)pyrazolo[1,5-a]pyridine-3-carboxamide], for which the EC50 amounted to 2 nM.

For `O=C(c1cnn2ccc(-c3c[nH]c4ncccc34)cc12)N1CCCCC1` [Compound 53, (5-(1H-Pyrrolo[2,3-b]pyridin-3-yl)pyrazolo[1,5-a]pyridin-3-yl) (piperidin-1-yl)methanone], the EC50 is 7 nM.

As to `CN1CCN(C2CCN(C(=O)c3cnn4ccc(-c5c[nH]c6ncccc56)cc34)CC2)CC1` [Compound 54, (5-(1H-Pyrrolo[2,3-b]pyridin-3-yl)pyrazolo[1,5-a]pyridin-3-yl)(4-(4-methylpiperazin-1-yl)piperidin-1-yl)methanone], the EC50 was found to be 18 nM.

With `CN1CCN(C(=O)c2cnn3ccc(-c4c[nH]c5ncccc45)cc23)CC1` [Compound 55, (5-(1H-Pyrrolo[2,3-b]pyridin-3-yl)pyrazolo[1,5-a]pyridin-3-yl)(4-methylpiperazin-1-yl)methanone], the EC50 was 4 nM.

Consider `O=C(c1cnn2ccc(-c3c[nH]c4ncccc34)cc12)N1CCN(C2CC2)CC1` [Compound 56, (5-(1H-Pyrrolo[2,3-b]pyridin-3-yl)pyrazolo[1,5-a]pyridin-3-yl)(4-cyclopropylpiperazin-1-yl)methanone], for which the EC50 stood at 7 nM.

In the case of `O=C(c1cnn2ccc(-c3c[nH]c4ncccc34)cc12)N1CCNC2(CC2)C1` [Compound 57, (5-(1H-Pyrrolo[2,3-b]pyridin-3-yl)pyrazolo[1,5-a]pyridin-3-yl)(4,7-diazaspiro[2.5]octan-7-yl)methanone], the EC50 was 3 nM.

For `CN1C2CCC1CN(C(=O)c1cnn3ccc(-c4c[nH]c5ncccc45)cc13)C2` [Compound 58, (5-(1H-Pyrrolo[2,3-b]pyridin-3-yl)pyrazolo[1,5-a]pyridin-3-yl)(8-methyl-3,8-diazabicyclo[3.2.1]octan-3-yl)methanone], the 50% effective concentration (EC50) turned out to be 12 nM.

In the case of `CN1CC2CCC(C1)N2C(=O)c1cnn2ccc(-c3c[nH]c4ncccc34)cc12` [Compound 59, (5-(1H-Pyrrolo[2,3-b]pyridin-3-yl)pyrazolo[1,5-a]pyridin-3-yl)(3-methyl-3,8-diazabicyclo[3.2.1]octan-8-yl)methanone], the EC50 was determined as 81 nM.

As to `O=C(c1cnn2ccc(-c3c[nH]c4ncccc34)cc12)N1CCOCC1` [Compound 60, (5-(1H-Pyrrolo[2,3-b]pyridin-3-yl)pyrazolo[1,5-a]pyridin-3-yl) (morpholino)methanone], the EC50 worked out at 6 nM.

On to `O=C(c1cnn2ccc(-c3c[nH]c4ncccc34)cc12)N1CC2(CNC2)C1` [Compound 61, (5-(1H-Pyrrolo[2,3-b]pyridin-3-yl)pyrazolo[1,5-a]pyridin-3-yl)(2,6-diazaspiro[3.3]heptan-2-yl)methanone], for which the EC50 stood at 4 nM.

Turning to `CN1CC2(C1)CN(C(=O)c1cnn3ccc(-c4c[nH]c5ncccc45)cc13)C2` [Compound 62, (5-(1H-Pyrrolo[2,3-b]pyridin-3-yl)pyrazolo[1,5-a]pyridin-3-yl)(6-methyl-2,6-diazaspiro[3.3]heptan-2-yl)methanone], the EC50 was found to be 5 nM.

As to `O=C(c1cnn2ccc(-c3c[nH]c4ncccc34)cc12)N1CC2CNCC2C1` (stereo not shown) [Compound 63, (5-(1H-Pyrrolo[2,3-b]pyridin-3-yl)pyrazolo[1,5-a]pyridin-3-yl) (hexahydropyrrolo[3,4-c]pyrrol-2(1H)-yl)methanone], the EC50 was 5 nM.

Regarding `CN1CC2CN(C(=O)c3cnn4ccc(-c5c[nH]c6ncccc56)cc34)CC2C1` (stereo not shown) [Compound 64, (5-(1H-Pyrrolo[2,3-b]pyridin-3-yl)pyrazolo[1,5-a]pyridin-3-yl)(5-methylhexahydropyrrolo[3,4-c]pyrrol-2(1H)-yl)methanone], the EC50 was found to be 6 nM.

`c1cnc2[nH]cc(-c3ccn4nccc4n3)c2c1` [Compound 65, 5-(1H-Pyrrolo[2,3-b]pyridin-3-yl)pyrazolo[1,5-a]pyrimidine]: the EC50 is 7 nM.

With `COc1ccc(-c2c[nH]c3ncccc23)cn1` [Compound 67, 3-(6-Methoxypyridin-3-yl)-1H-pyrrolo[2,3-b]pyridine], the EC50 is 19 nM.

For the compound `COc1ccc(-c2c[nH]c3ncccc23)nn1` [Compound 69, 3-(6-Methoxypyridazin-3-yl)-1H-pyrrolo[2,3-b]pyridine], the EC50 stood at 73 nM.

As to `CN1CCC(Nc2cncc(-c3c[nH]c4ncccc34)n2)CC1` [Compound 70, N-(1-Methylpiperidin-4-yl)-6-(1H-pyrrolo[2,3-b]pyridin-3-yl)pyrazin-2-amine], the EC50 worked out at 13 nM.

As for `CC1(C)COc2ccc(-c3c[nH]c4ncccc34)cc21` [Compound 72, 3-(3,3-Dimethyl-2,3-dihydrobenzofuran-5-yl)-1H-pyrrolo[2,3-b] pyridine], the EC50 is 91 nM.

As for `CN1Cc2cc(-c3c[nH]c4ncccc34)ccc2C1=O` [Compound 76, 2-Methyl-5-(1H-pyrrolo[2,3-b]pyridin-3-yl)isoindolin-1-one], the EC50 was 31 nM.

`O=C1NC2(CCCCC2)c2cc(-c3c[nH]c4ncccc34)ccc21` [Compound 78, 6′-(1H-Pyrrolo[2,3-b]pyridin-3-yl)spiro[cyclohexane-1,1′-isoindolin]-3′-one]: the EC50 is 6 nM.

On to `c1cnc2[nH]cc(-c3ccc4c(c3)CCCO4)c2c1` [Compound 79, 3-(Chroman-6-yl)-1H-pyrrolo[2,3-b]pyridine], for which the concentration for a half-maximal effect (EC50) was found to be 24 nM.

Turning to `CC1(C)CC(=O)c2ccc(-c3c[nH]c4ncccc34)cc2O1` [Compound 80, 2,2-Dimethyl-7-(1H-pyrrolo[2,3-b]pyridin-3-yl)chroman-4-one], the EC50 stood at 31 nM.

On to `CC1(C)CNC(=O)c2ccc(-c3c[nH]c4ncccc34)cc21` [Compound 82, 4,4-Dimethyl-6-(1H-pyrrolo[2,3-b]pyridin-3-yl)-3,4-dihydroisoquinolin-1(2H)-one], for which the EC50 was 6 nM.

Regarding `O=C1CC2(CCNCC2)Oc2cc(-c3c[nH]c4ncccc34)ccc21` [Compound 83, 7-(1H-Pyrrolo[2,3-b]pyridin-3-yl)spiro[chromane-2,4′-piperidin]-4-one], the concentration giving a half-maximal response (EC50) came to 29 nM.

In the case of `O=C1NCCOc2cc(-c3c[nH]c4ncccc34)ccc21` [Compound 84, 8-(1H-Pyrrolo[2,3-b]pyridin-3-yl)-3,4-dihydrobenzo[f][1,4]oxazepin-5(2H)-one], the EC50 worked out at 3 nM.

On to `CN1CCOc2cc(-c3c[nH]c4ncccc34)ccc2C1=O` [Compound 85, 4-Methyl-8-(1H-pyrrolo[2,3-b]pyridin-3-yl)-3,4-dihydrobenzo[f] [1,4]oxazepin-5(2H)-one], for which the EC50 was found to be 25 nM.

As for `O=C1NCCOc2c1ccc(-c1c[nH]c3ncccc13)c2F` [Compound 86, 9-Fluoro-8-(1H-pyrrolo[2,3-b]pyridin-3-yl)-3,4-dihydrobenzo[f] [1,4]oxazepin-5(2H)-one], the EC50 came to 7 nM.

For `c1cnc2ccc(-c3c[nH]c4ncccc34)cc2c1` [Compound 87, 6-(1H-Pyrrolo[2,3-b]pyridin-3-yl)quinoline], the EC50 was determined as 2 nM.

In the case of `O=C(c1ccnc2ccc(-c3c[nH]c4ncccc34)cc12)N1CCNC2(CC2)C1` [Compound 88, (6-(1H-Pyrrolo[2,3-b]pyridin-3-yl)quinolin-4-yl)(4,7-diazaspiro[2.5]octan-7-yl)methanone], the EC50 amounted to 3 nM.

Turning to `CN1CCC(NC(=O)c2ccnc3ccc(-c4c[nH]c5ncccc45)cc23)CC1` [Compound 89, N-(1-Methylpiperidin-4-yl)-6-(1H-pyrrolo[2,3-b]pyridin-3-yl) quinoline-4-carboxamide], the EC50 came out at 1 nM.
